Data taken from US20240216402A1, “PHARMACEUTICAL COMPOSITION, AND PREPARATION METHOD THEREFOR AND APPLICATION THEREOF” (QILU PHARMACEUTICAL CO., LTD., priority 2021, published 2024).
≈ marks a conversion by molar mass, not a printed value. Blank lines part the entries; values can stand above or below the compound they belong to.

Columns and labels:
[1] = particle size distribution of raw material samples; type: physicochemical
Source text: In the present invention, D50 refers to the particle size corresponding to the cumulative volume distribution percentage of spirocyclic aryl phosphorus oxides or pharmaceutically acceptable salts thereof reaching 50% measured from a small particle size; D90 refers to the particle size corresponding to the cumulative volume distribution percentage of spirocyclic aryl phosphorus oxides or pharmaceutically acceptable salts thereof reaching 90% measured from a small particle size.

[2] = solubility in solvents (description of the substance); type: physicochemical
Source text: (§1) The solubility of the drug directly influences the dissolution rate of the composition containing the drug, which in turn influences the bioavailability of the pharmaceutical composition. Therefore, how to improve the dissolution rate of pharmaceutical compositions containing spirocyclic aryl phosphorus oxide in solvents other than hydrochloric acid has become an urgent problem to be solved.

[3] = hygroscopicity (description of the substance); type: physicochemical
Source text: as §1

[4] = XRPD of residual solid in the solubility test; type: physicochemical; conditions: 24 hrs
Experimental: (§2) The solubilities of spirocyclic aryl phosphorus oxides in buffers at different pHs were determined. Nine test samples of 4 mg were each weighed and added to sample bottles of 1.5 mL, and then different solvents (0.1 mol/L HCl, 0.01 mol/L HCl, pH3.5 acetate buffer, pH4.5 acetate buffer, pH5.5 phosphate buffer, pH6.5 phosphate buffer, pH6.8 phosphate buffer, pH7.5 phosphate buffer and water) of 1 mL were added. According to the dissolution, the raw material compounds were continuously added to form a saturated solution. A magneton was added to the saturated solution and then stirred on a magnetic agitator (temperature was 37° C., away from light). After stirring for 24 hours, the samples were taken and centrifuged, and the residual solid samples in the lower layer were tested by X-ray powder diffraction (XRPD). The upper sample was filtered by a filter membrane, the final pH value of the filtrate was measured, and the saturated solubility of the compound was determined by high performance liquid chromatography (HPLC).

[5] = Determination of solubility in buffers at different pHs (saturated solubility by HPLC); type: physicochemical; conditions: for solubility at 24 h: thermodynamic from solid, 37° C.
Experimental: as §2

[6] = tested on: other related serine, threonine and tyrosine except EGFR wild type; test: kinase selectivity; type: biochemical; conditions: in the detected concentration range

Particle size D10 (μm) [1]: 6.8 μm
Particle size D50 (μm) [1]: 47.9 μm
Particle size D90 (μm) [1]: 122 μm
SMILES: COc1cc(N2CCC3(CCN(C)CC3)CC2)ccc1Nc1ncc(Cl)c(Nc2ccccc2P(C)(C)=O)n1 [Sample 7]

Particle size D10 (μm) [1]: 7.8 μm
Particle size D50 (μm) [1]: 63.1 μm
Particle size D90 (μm) [1]: 193 μm
SMILES: COc1cc(N2CCC3(CCN(C)CC3)CC2)ccc1Nc1ncc(Cl)c(Nc2ccccc2P(C)(C)=O)n1 [Sample 8]

solubility ([2]; 1 mol/L hydrochloric acid solution): easily soluble
solubility ([2]; 1 mol/L sodium hydroxide solution): practically insoluble, or insoluble
solubility ([2]; acetonitrile): slightly soluble
solubility ([2]; dichloromethane): easily soluble
solubility ([2]; ethanol): slightly soluble
solubility ([2]; methanol): sparingly soluble
solubility ([2]; water): slightly soluble
hygroscopicity [3]: almost no hygroscopicity
XRPD (crystal form of residual solid) ([4]; 0.01 mol/L HCl (pH2.02)): no change
XRPD (crystal form of residual solid) ([4]; 0.1 mol/L HCl (pH 1.02)): no change
XRPD (crystal form of residual solid) ([4]; pH 3.5 buffer (pH 3.53)): no change
XRPD (crystal form of residual solid) ([4]; pH 4.5 buffer (pH 4.49)): no change
XRPD (crystal form of residual solid) ([4]; pH 5.5 buffer (pH 5.47)): no change
XRPD (crystal form of residual solid) ([4]; pH 6.5 buffer (pH 6.45)): no change
XRPD (crystal form of residual solid) ([4]; pH 6.8 buffer (pH 6.83)): no change
XRPD (crystal form of residual solid) ([4]; pH 7.5 buffer (pH 7.53)): no change
XRPD (crystal form of residual solid) ([4]; water (pH 6.33)): no change
Dose/solubility (mL, in 60 mg specifications) ([5]; 0.01 mol/L HCl (pH2.02)): 8.69 mL
Conclusions (solubility class) ([5]; 0.1 mol/L HCl (pH 1.02)): soluble (10 ml to less than 30 ml)
Dose/solubility (mL, in 60 mg specifications) ([5]; 0.1 mol/L HCl (pH 1.02)): 1.12 mL
solubility at 24 h ([5]; pH 2.02, simulated gastric fluid, 0.01 mol/L HCl (pH2.02)): 6900 µg/mL (≈ 12.1 mM)
solubility at 24 h ([5]; pH 3.5 acetate buffer, aqueous buffer, pH 3.5 buffer (pH 3.53), acetate): 279000 µg/mL (≈ 491 mM)
Dose/solubility (mL, in 60 mg specifications) ([5]; pH 3.5 buffer (pH 3.53)): 0.22 mL
solubility at 24 h ([5]; pH 4.5 acetate buffer, aqueous buffer, pH 4.5 buffer (pH 4.49), acetate): 108000 µg/mL (≈ 190 mM)
Dose/solubility (mL, in 60 mg specifications) ([5]; pH 4.5 buffer (pH 4.49)): 0.56 mL
Dose/solubility (mL, in 60 mg specifications) ([5]; pH 5.5 buffer (pH 5.47)): 8.45 mL
solubility at 24 h ([5]; pH 5.5 phosphate buffer, aqueous buffer, pH 5.5 buffer (pH 5.47), phosphate): 7100 µg/mL (≈ 12.5 mM)
Dose/solubility (mL, in 60 mg specifications) ([5]; pH 6.5 buffer (pH 6.45)): 5.41 mL
solubility at 24 h ([5]; pH 6.5 phosphate buffer, aqueous buffer, pH 6.5 buffer (pH 6.45), phosphate): 11100 µg/mL (≈ 19.5 mM)
Dose/solubility (mL, in 60 mg specifications) ([5]; pH 6.8 buffer (pH 6.83)): 16.67 mL
solubility at 24 h ([5]; pH 6.8 phosphate buffer, aqueous buffer, pH 6.8 buffer (pH 6.83), phosphate): 3600 µg/mL (≈ 6.33 mM)
Dose/solubility (mL, in 60 mg specifications) ([5]; pH 7.5 buffer (pH 7.53)): 70.59 mL
solubility at 24 h ([5]; pH 7.5 phosphate buffer, aqueous buffer, pH 7.5 buffer (pH 7.53), phosphate): 850 µg/mL (≈ 1.49 mM)
solubility at 24 h ([5]; simulated gastric fluid, 0.1 mol/L HCl (pH 1.02)): 53400 µg/mL (≈ 93.8 mM)
solubility at 24 h ([5]; water (pH 6.33)): 60 µg/mL (≈ 0.105 mM)
Dose/solubility (mL, in 60 mg specifications) ([5]; water (pH 6.33)): >250 mL
inhibitory activity to other kinases [6]: Low inhibitory activity
SMILES: COc1cc(N2CCC3(CCN(C)CC3)CC2)ccc1Nc1ncc(Cl)c(Nc2ccccc2P(C)(C)=O)n1 [spirocyclic aryl phosphorus oxide, (2-((5-chloro-2-((2-methoxy-4-(9-methyl-3,9-diazaspiro[5.5]undecan-3-yl)phenyl)amino)pyrimidin-4-yl)amino)phenyl)dimethylphosphine oxide]

Continued, compound first:

SMILES: COc1cc(N2CCC3(CCN(C)CC3)CC2)ccc1Nc1ncc(Cl)c(Nc2ccccc2P(C)(C)=O)n1 [Sample 1]
Particle size D10 (μm) [1]: 0.7 μm
Particle size D50 (μm) [1]: 5.4 μm
Particle size D90 (μm) [1]: 11.6 μm

SMILES: COc1cc(N2CCC3(CCN(C)CC3)CC2)ccc1Nc1ncc(Cl)c(Nc2ccccc2P(C)(C)=O)n1 [Sample 2]
Particle size D10 (μm) [1]: 1.3 μm
Particle size D50 (μm) [1]: 10.1 μm
Particle size D90 (μm) [1]: 27.1 μm

SMILES: COc1cc(N2CCC3(CCN(C)CC3)CC2)ccc1Nc1ncc(Cl)c(Nc2ccccc2P(C)(C)=O)n1 [Sample 3]
Particle size D10 (μm) [1]: 1.6 μm
Particle size D50 (μm) [1]: 13.0 μm
Particle size D90 (μm) [1]: 40.3 μm

SMILES: COc1cc(N2CCC3(CCN(C)CC3)CC2)ccc1Nc1ncc(Cl)c(Nc2ccccc2P(C)(C)=O)n1 [Sample 4]
Particle size D10 (μm) [1]: 5.0 μm
Particle size D50 (μm) [1]: 23.8 μm
Particle size D90 (μm) [1]: 62 μm

SMILES: COc1cc(N2CCC3(CCN(C)CC3)CC2)ccc1Nc1ncc(Cl)c(Nc2ccccc2P(C)(C)=O)n1 [Sample 5]
Particle size D10 (μm) [1]: 1.8 μm
Particle size D50 (μm) [1]: 16.1 μm
Particle size D90 (μm) [1]: 69 μm

SMILES: COc1cc(N2CCC3(CCN(C)CC3)CC2)ccc1Nc1ncc(Cl)c(Nc2ccccc2P(C)(C)=O)n1 [Sample 6]
Particle size D10 (μm) [1]: 2.3 μm
Particle size D50 (μm) [1]: 18.2 μm
Particle size D90 (μm) [1]: 79.6 μm
